Measured values reported in US12528837B2, “Aryl substituted polymyxin derivatives” (priority 2018, dated 2026).
Values after ≈ are worked out from the molar mass of the structure shown. Like-named read-outs stand apart in the source and are kept apart here. One block for each compound: values may come before it. Where a SMILES comes first, the peptide text is derived from it. Bridges are numbered along the chain shown (N, C = ends). [ ]: non-standard residue; d: D form. The star is where a group is joined. X2 = NC[C@@H](CC(=O)*)c1cccc(-c2ccccc2)c1; X8 = NC[C@@H](CC(=O)*)Cc1cccc(Cl)c1; X13 = Cc1cccc([C@H](CN)CC(=O)*)c1; X11 = NC[C@H](CC(=O)*)c1ccccc1Cl; Dab = NCC[C@H](N)C(=O)O; Abu = CC[C@H](N)C(=O)O; Dap = NC[C@H](N)C(=O)O

Tests used:
K. pneumoniae CA64 = type: cell-based
Protocol: (§1) The inoculum was prepared by making a direct suspension of isolated colonies (selected from an 18-24 hour Mueller-Hinton agar plate) adjusted to the 0.5 McFarland standard. […] The assays were performed in duplicate. […] Several of the compounds were subjected to multiple tests, and where this is the case, the MIC presented is the median value obtained. The MIC values are quoted in μg/mL.

E. coli CA58 = type: cell-based
Protocol: as §1

P. aeruginosa CCUG 59347 = type: cell-based
Protocol: as §1

A. baumannii NCTC 13424 = type: cell-based
Protocol: (§2) The inoculum was prepared by making a direct suspension of isolated colonies (selected from an 18-24 hour Mueller-Hinton agar plate) adjusted to the 0.5 McFarland standard. […] The assays were performed in duplicate. […] The MIC values are quoted in μg/mL.

K. pneumoniae ATCC 13822 = type: cell-based
Protocol: as §2

P. aeruginosa ATCC 27853 = type: cell-based
Protocol: as §2

[1] = tested on: A. baumannii ATCC BAA-747; type: cell-based
Protocol: as §2

E. coli ATCC 25922 = type: cell-based
Protocol: as §2

HK-2 cells = experiment: In vitro renal cell toxicity assay (HK-2); type: cell-based
Protocol: The in vitro renal cell toxicity assay was performed according to the following protocol. […] Cells were seeded at 7,500 cells per well in 96-well plates and allowed to adhere overnight. […] Water and DMSO levels were kept constant at 5% and 0.5% respectively. The test compounds were incubated with cells for 24 h at 37° C. 5% CO2 in a humidified atmosphere. […] Media only background values were subtracted before the data was analysed using GraphPad Prism. Individual values were normalised to the vehicle control wells for each compound. Compound concentration values were plotted as log values to enable a dose-response curve to be fitted. The bottom of the curve was constrained to zero and IC50 values were determined. IC50 values are expressed relative to that for PMB in the same experiment. Where multiple determinations have been made, median values are presented.

[2] = Kidney drug level after subcutaneous dose in mouse; type: in vivo; conditions: mouse, in vivo, sc, 17.2 mg/kg
Protocol: Four hours after dosing the animals were euthanised and kidneys removed, trimmed of fat and connective tissue, weighed and immediately snap-frozen. After thawing at room temperature, pairs of kidneys from each animal were placed in 2 mL conical tubes containing pre-weighed ceria-stabilised zirconium oxide beads. […] After 10 min. centrifugation at 13,000 rpm and 6° C., 200 μl of the supernatants were transferred into glass inserts and analysed by LC-MS-MS.

[3] = Renal toxicity of Example 24 vs PMB after four doses in mouse; type: in vivo, mouse; conditions: mouse, in vivo, sc
Protocol: Immediately after the fourth dose mice were transferred to metabolic cages and urine collected for 24 h. for determination of urinary biomarkers. After urine collection mice were sacrificed for renal histopathology.
The urine biomarkers were normalized to urinary creatinine.

[4] = cation-adjusted Mueller-Hinton Broth, 18-20 h, 35° C.

- MIC K. pneumoniae CA64 (K. pneumoniae CA64; CA64): 32 µg/mL (≈ 28.4 µM)
- MIC E. coli CA58 (E. coli CA58; CA58): 8 µg/mL (≈ 7.11 µM)
- MIC P. aeruginosa CCUG 59347 (P. aeruginosa CCUG 59347; CCUG 59347): 1 µg/mL (≈ 0.889 µM)
- MIC A. baumannii NCTC 13424 (A. baumannii NCTC 13424; NCTC 13424): 0.5 µg/mL (≈ 0.445 µM)
- MIC K. pneumoniae ATCC 13822 (K. pneumoniae ATCC 13822; ATCC 13822): 0.5 µg/mL (≈ 0.445 µM)
- MIC P. aeruginosa ATCC 27853 (P. aeruginosa ATCC 27853; ATCC 27853): 0.5 µg/mL (≈ 0.445 µM)
- MIC A. baumannii ATCC BAA-747 ([1]; ATCC BAA-747): 0.5 µg/mL (≈ 0.445 µM)
- MIC E. coli ATCC 25922 (E. coli ATCC 25922; ATCC 25922): 1 µg/mL (≈ 0.889 µM)
SMILES: CC(C)C[C@@H]1NC(=O)[C@@H](CC(C)C)NC(=O)[C@H](CCN)NC(=O)[C@@H](NC(=O)[C@H](CN)NC(=O)[C@@H](NC(=O)C[C@H](CN)Cc2cccc(Cl)c2)[C@@H](C)O)CCNC(=O)[C@H]([C@@H](C)O)NC(=O)[C@H](CCN)NC(=O)[C@H](CCN)NC1=O [Example 14, (R)-4-amino-3-(3- chlorobenzy!)butanoyl- Thr-Dap-Cyclo[Dab- Dab-DLeu-Leu-Dab- Dab-Thr] Isomer 1] (X8-T[Dap][Dab][Dab][dL]L[Dab][Dab]T; lactam 3-C)

- MIC K. pneumoniae CA64 (K. pneumoniae CA64; CA64): 16 µg/mL (≈ 14.2 µM)
- MIC E. coli CA58 (E. coli CA58; CA58): 4 µg/mL (≈ 3.56 µM)
- MIC P. aeruginosa CCUG 59347 (P. aeruginosa CCUG 59347; CCUG 59347): 0.25 µg/mL (≈ 0.222 µM)
- MIC A. baumannii NCTC 13424 (A. baumannii NCTC 13424; NCTC 13424): 0.06 µg/mL (≈ 0.0534 µM)
- MIC K. pneumoniae ATCC 13822 (K. pneumoniae ATCC 13822; ATCC 13822): 0.25 µg/mL (≈ 0.222 µM)
- MIC A. baumannii ATCC BAA-747 ([1]; ATCC BAA-747): 0.03 µg/mL (≈ 0.0267 µM)
- tissue level at time at 4 h [2]: 203000 ng/g
SMILES: CC[C@@H]1NC(=O)[C@@H](CC(C)C)NC(=O)[C@H](CCN)NC(=O)[C@@H](NC(=O)[C@H](CN)NC(=O)[C@@H](NC(=O)C[C@H](CN)c2cccc(-c3ccccc3)c2)[C@@H](C)O)CCNC(=O)[C@H]([C@@H](C)O)NC(=O)[C@H](CCN)NC(=O)[C@H](CCN)NC1=O [Example 24, (S)-3-(1,1′-biphenyl- 3-yl)-4-aminobutanoyl-Thr- Dap-Cyclo[Dab-Dab- DLeu-Abu-Dab-Dab- Thr]] (X2-T[Dap][Dab][Dab][dL][Abu][Dab][Dab]T; lactam 3-C)
- HK-2 rel to PMB (HK-2 cells): 21.8
- Basophilic Tubules (cortex) (animals affected) ([3]; 25 mg/kg): 0/5
- Mitotic Figures increased (animals affected) ([3]; 25 mg/kg): 0/5
- Tubular Degeneration/necrosis (histopathology, animals affected) ([3]; 25 mg/kg): 0/5
- Urine Albumin ([3]; 25 mg/kg): 4.78
- Urine Cystatin C ([3]; 25 mg/kg): 31.04
- Urine Kim-1 ([3]; 25 mg/kg): 27.61
- Urine NGAL ([3]; 25 mg/kg): 0.00
- Urine β-2 microglobulin ([3]; 25 mg/kg): 0.05
- Basophilic Tubules (cortex) (animals affected) ([3]; 50 mg/kg): 2/5 (2 min)
- Mitotic Figures increased (animals affected) ([3]; 50 mg/kg): 2/5 (2 min)
- Tubular Degeneration/necrosis (histopathology, animals affected) ([3]; 50 mg/kg): 2/5 (2 min)
- Urine Albumin ([3]; 50 mg/kg): 6.95
- Urine Cystatin C ([3]; 50 mg/kg): 33.97
- Urine Kim-1 ([3]; 50 mg/kg): 171.59
- Urine NGAL ([3]; 50 mg/kg): 0.63
- Urine β-2 microglobulin ([3]; 50 mg/kg): 13.22
- Basophilic Tubules (cortex) (animals affected) ([3]; 75 mg/kg): 5/5 (2 min/
- Mitotic Figures increased (animals affected) ([3]; 75 mg/kg): 5/5 (5 min)
- Tubular Degeneration/necrosis (histopathology, animals affected) ([3]; 75 mg/kg): 5/5 (1 min/
- Urine Albumin ([3]; 75 mg/kg): 10.93
- Urine Cystatin C ([3]; 75 mg/kg): 81.44
- Urine Kim-1 ([3]; 75 mg/kg): 1,203.41
- Urine NGAL ([3]; 75 mg/kg): 3.71
- Urine β-2 microglobulin ([3]; 75 mg/kg): 68.51

SMILES: Cc1cccc([C@H](CN)CC(=O)N[C@H](C(=O)N[C@@H](CN)C(=O)N[C@H]2CCNC(=O)[C@H]([C@@H](C)O)NC(=O)[C@H](CCN)NC(=O)[C@H](CCN)NC(=O)[C@H](CC(C)C)NC(=O)[C@@H](Cc3ccccc3)NC(=O)[C@H](CCN)NC2=O)[C@@H](C)O)c1 [Example 22, (R)-4-amino-3-(m- toly)butanoyl-Thr- Dap-Cyclo[Dab-Dab- DPhe-Leu-Dab-Dab- Thr]] (X13-T[Dap][Dab][Dab][dF]L[Dab][Dab]T; lactam 3-C)
- MIC K. pneumoniae CA64 (K. pneumoniae CA64; [4]): 8 µg/mL (≈ 7.12 µM)
- MIC E. coli CA58 (E. coli CA58; [4]): 16 µg/mL (≈ 14.2 µM)
- MIC P. aeruginosa CCUG 59347 (P. aeruginosa CCUG 59347; [4]): 0.5 µg/mL (≈ 0.445 µM)
- MIC A. baumannii NCTC 13424 (A. baumannii NCTC 13424; [4]): 1 µg/mL (≈ 0.889 µM)
- MIC K. pneumoniae ATCC 13822 (K. pneumoniae ATCC 13822; [4]): 0.25 µg/mL (≈ 0.222 µM)
- MIC P. aeruginosa ATCC 27853 (P. aeruginosa ATCC 27853; [4]): 0.25 µg/mL (≈ 0.222 µM)
- MIC A. baumannii ATCC BAA-747 [1, 4]: 1 µg/mL (≈ 0.889 µM)
- MIC E. coli ATCC 25922 (E. coli ATCC 25922; [4]): 0.25 µg/mL (≈ 0.222 µM)

SMILES: CC(C)C[C@@H]1NC(=O)[C@@H](Cc2ccccc2)NC(=O)[C@H](CCN)NC(=O)[C@@H](NC(=O)[C@H](CN)NC(=O)[C@@H](NC(=O)C[C@@H](CN)c2ccccc2Cl)[C@@H](C)O)CCNC(=O)[C@H]([C@@H](C)O)NC(=O)[C@H](CCN)NC(=O)[C@H](CCN)NC1=O [Example 4, (R)-4-amino-3-(2- chlorophenyl)butanoyl- Thr-Dap-Cyclo[Dab- Dab-DPhe-Leu-Dab- Dab-Thr]] (X11-T[Dap][Dab][Dab][dF]L[Dab][Dab]T; lactam 3-C)
- MIC K. pneumoniae CA64 (K. pneumoniae CA64; [4]): 16 µg/mL (≈ 14 µM)
- MIC E. coli CA58 (E. coli CA58; [4]): 16 µg/mL (≈ 14 µM)
- MIC P. aeruginosa CCUG 59347 (P. aeruginosa CCUG 59347; [4]): 0.5 µg/mL (≈ 0.437 µM)
- MIC A. baumannii NCTC 13424 (A. baumannii NCTC 13424; [4]): 1 µg/mL (≈ 0.874 µM)
- MIC K. pneumoniae ATCC 13822 (K. pneumoniae ATCC 13822; [4]): 0.25 µg/mL (≈ 0.218 µM)
- MIC P. aeruginosa ATCC 27853 (P. aeruginosa ATCC 27853; [4]): 0.25 µg/mL (≈ 0.218 µM)
- MIC A. baumannii ATCC BAA-747 [1, 4]: 1 µg/mL (≈ 0.874 µM)
- MIC E. coli ATCC 25922 (E. coli ATCC 25922; [4]): 0.5 µg/mL (≈ 0.437 µM)
